Reference: patent US8785655B2, “Ionic liquid solvents” (Dublin City University, priority 2009, dated 2014)

Columns and labels:
[1] = test system: Staphylococcus aureus CCM 4516/08; experiment: Screen against bacteria, MIC/IC80; assay type: cell-based; conditions: SA
[2] = test system: Staphylococcus aureus H 5996/08 Methiciline-resistant; experiment: Screen against bacteria, MIC/IC80; assay type: cell-based; conditions: MRSA
[3] = test system: Staphylococcus epidermidis H 6966/08; experiment: Screen against bacteria, MIC/IC80; assay type: cell-based; conditions: SE
[4] = test system: Enterococcus sp. J 14365/08; experiment: Screen against bacteria, MIC/IC80; assay type: cell-based; conditions: EF
Escherichia coli CCM4517 = experiment: Screen against bacteria, MIC/IC80; assay type: cell-based; conditions: EC
[5] = test system: Klebsiella pneumoniae D 11750/08; experiment: Screen against bacteria, MIC/IC80; assay type: cell-based; conditions: KP
[6] = test system: Klebsiella pneumoniae J 14368/08 ESBL-positive; experiment: Screen against bacteria, MIC/IC80; assay type: cell-based; conditions: KP-E
[7] = test system: Pseudomonas aeruginosa CCM 1961; experiment: Screen against bacteria, MIC/IC80; assay type: cell-based; conditions: PA
fungi and bacteria = assay type: cell-based
Protocol: All the 12 bromide salts and 12 octylsulfate CILs in the table below were screened against fungi and bacteria.
CILs with bromide as anion have been screened against the following Fungi and bacteria:
. […] MICs were determined twice and in duplicate.

[8] = test system: Candida albicans ATCC 44859; experiment: In vitro antifungal activity, MIC by microdilution (NCCLS M27-A)
Protocol: (§1) In vitro antifungal activities of the compounds were evaluated on the collection of fungal strains deposited at the Department of Biological and Medical Sciences, Faculty of Pharmacy, Charles University, Czech Republic. All the isolates were maintained on Sabouraud dextrose agar prior to being tested.
(§2) Minimum inhibitory concentrations (MICs) were determined by the microdilution format of the NCCLS M27-A guidelines. […] RPMI 1640 (Sevapharma, Prague) medium supplemented with L-glutamine and buffered with 0.165 M morpholinepropanesulfonic acid to pH 7.0 was used as the test medium. The wells of the microdilution tray contained 100 μl of the RPMI 1640 medium with 2-fold serial dilutions of the compounds (1000 to 0.24 μmol/l for the new compounds) and 100 μl of inoculum suspension. Fungal inoculum in RPMI 1640 was prepared to give a final concentration of 5×103±0.2 cfu·ml-1. The trays were incubated at 35° C. and MICs were read visually for filamentous fungi and photometrically for yeasts as an optical density (OD) at 540 nm after 24 h and 48 h. The MICs were defined as 80% inhibition of the growth of control. MICs were determined twice and in duplicate. The deviations from the usually obtained were no higher than the nearest concentration value up and down the dilution scale.

[9] = test system: Candida albicans ATCC 90028; experiment: as above
Protocol: as §1, §2

[10] = test system: Candida parapsilosis ATCC 22019; experiment: as above; conditions: CP
Protocol: as §1, §2

Candida krusei ATCC 6258 = experiment: as above
Candida krusei E28 = experiment: as above
Candida tropicalis 156 = experiment: as above; conditions: CT
Candida glabrata 20/l = experiment: as above; conditions: CG
[11] = test system: Candida lusitaniae 2446/l; experiment: as above; conditions: CL
[12] = test system: Aspergillus fumigatus 231; experiment: as above; conditions: AF
Protocol: as §1, §2

Absidia corymbifera 272 = experiment: as above; conditions: AC
[13] = test system: Trichophyton mentagrophytes 445; experiment: as above; conditions: TM
Protocol: as §1, §2

SMILES | MIC/IC80 ([1]; 24 h) [µM] | MIC/IC80 ([1]; 48 h) [µM] | MIC/IC80 ([2]; 24 h) [µM] | MIC/IC80 ([2]; 48 h) [µM] | MIC/IC80 ([3]; 24 h) [µM] | MIC/IC80 ([3]; 48 h) [µM] | MIC/IC80 ([4]; 24 h) [µM] | MIC/IC80 ([4]; 48 h) [µM] | MIC/IC80 (Escherichia coli CCM4517; 24 h) [µM] | MIC/IC80 (Escherichia coli CCM4517; 48 h) [µM] | MIC/IC80 ([5]; 24 h) [µM] | MIC/IC80 ([5]; 48 h) [µM] | MIC/IC80 ([6]; 24 h) [µM] | MIC/IC80 ([6]; 48 h) [µM] | MIC/IC80 ([7]; 24 h) [µM] | MIC/IC80 ([7]; 48 h) [µM] | MIC/IC80 ([8]; CA1, 24 h) [µM] | MIC/IC80 ([8]; CA1, 48 h) [µM] | MIC/IC80 ([9]; CA2, 24 h) [µM] | MIC/IC80 ([9]; CA2, 48 h) [µM] | other results
CCCCCCCCOS(=O)(=O)[O-].CCCCCOC(=O)C(OC(=O)Cn1cc[n+](C)c1)c1ccccc1 (stereo not shown) [KG304, RS-3-methyl-1-[1-(pentoxycarbonyl)-1-phenylmethoxycarbonylmethyl]imidazolium octyl sulphate] | 1000 | 1000 | >1000 | >1000 | 1000 | >1000 | >1000 | >1000 | >1000 | >1000 | >1000 | >1000 | >1000 | >1000 | >1000 | >1000 | 1000 | 1000 | >1000 | >1000 | toxicity / inhibition of the growth of fungi and bacteria (fungi and bacteria): inhibit the growth of fungi and bacteria; MIC/IC80 ([10]; 24 h): >1000 µM; MIC/IC80 ([10]; 48 h): >1000 µM; MIC/IC80 (Candida krusei ATCC 6258; CK1, 24 h): 1000 µM; MIC/IC80 (Candida krusei ATCC 6258; CK1, 48 h): >1000 µM; MIC/IC80 (Candida krusei E28; CK2, 24 h): >1000 µM; MIC/IC80 (Candida krusei E28; CK2, 48 h): >1000 µM; MIC/IC80 (Candida tropicalis 156; 24 h): >1000 µM; MIC/IC80 (Candida tropicalis 156; 48 h): >1000 µM; MIC/IC80 (Candida glabrata 20/l; 24 h): >1000 µM; MIC/IC80 (Candida glabrata 20/l; 48 h): >1000 µM; MIC/IC80 ([11]; 24 h): >1000 µM; MIC/IC80 ([11]; 48 h): >1000 µM; MIC/IC80 ([12]; 24 h): 500 µM; MIC/IC80 ([12]; 48 h): >1000 µM; MIC/IC80 (Absidia corymbifera 272; 24 h): 1000 µM; MIC/IC80 (Absidia corymbifera 272; 48 h): 1000 µM; MIC/IC80 ([13]; 72 h): 250 µM; MIC/IC80 ([13]; 120 h): 500 µM
CCOCCOC(=O)C(OC(=O)Cn1cc[n+](C)c1)c1ccccc1.[Br-] (stereo not shown) [KG818, RS-3-methyl-1-[1-(ethoxyethoxycarbonyl)-1-phenylmethoxycarbonylmethyl]imidazolium bromide] | >1000 | >1000 | >1000 | >1000 | >1000 | >1000 | >1000 | >1000 | >1000 | >1000 | >1000 | >1000 | >1000 | >1000 | >1000 | >1000 | >1000 | >1000 | >1000 | >1000 | MIC/IC80 ([10]; 24 h): >1000 µM; MIC/IC80 ([10]; 48 h): >1000 µM; MIC/IC80 (Candida krusei ATCC 6258; CK1, 24 h): >1000 µM; MIC/IC80 (Candida krusei ATCC 6258; CK1, 48 h): >1000 µM; MIC/IC80 (Candida krusei E28; CK2, 24 h): >1000 µM; MIC/IC80 (Candida krusei E28; CK2, 48 h): >1000 µM; MIC/IC80 (Candida tropicalis 156; 24 h): >1000 µM; MIC/IC80 (Candida tropicalis 156; 48 h): >1000 µM; MIC/IC80 (Candida glabrata 20/l; 24 h): >1000 µM; MIC/IC80 (Candida glabrata 20/l; 48 h): >1000 µM; MIC/IC80 ([11]; 24 h): >1000 µM; MIC/IC80 ([11]; 48 h): >1000 µM; MIC/IC80 ([12]; 24 h): >1000 µM; MIC/IC80 ([12]; 48 h): >1000 µM; MIC/IC80 (Absidia corymbifera 272; 24 h): >1000 µM; MIC/IC80 (Absidia corymbifera 272; 48 h): >1000 µM; MIC/IC80 ([13]; 72 h): >1000 µM; MIC/IC80 ([13]; 120 h): >1000 µM
CCCCCCCCOS(=O)(=O)[O-].COC(=O)[C@@H](OC(=O)Cn1cc[n+](C)c1)c1ccccc1 [KG88, S-3-methyl-1-[1-(methoxycarbonyl)-1-phenylmethoxycarbonylmethyl]imidazolium octyl sulphate] | >1000 | >1000 | >1000 | >1000 | >1000 | >1000 | >1000 | >1000 | >1000 | >1000 | >1000 | >1000 | >1000 | >1000 | >1000 | >1000 | >1000 | >1000 | >1000 | >1000 | MIC/IC80 ([10]; 24 h): >1000 µM; MIC/IC80 ([10]; 48 h): >1000 µM; MIC/IC80 (Candida krusei ATCC 6258; CK1, 24 h): >1000 µM; MIC/IC80 (Candida krusei ATCC 6258; CK1, 48 h): >1000 µM; MIC/IC80 (Candida krusei E28; CK2, 24 h): >1000 µM; MIC/IC80 (Candida krusei E28; CK2, 48 h): >1000 µM; MIC/IC80 (Candida tropicalis 156; 24 h): >1000 µM; MIC/IC80 (Candida tropicalis 156; 48 h): >1000 µM; MIC/IC80 (Candida glabrata 20/l; 24 h): >1000 µM; MIC/IC80 (Candida glabrata 20/l; 48 h): >1000 µM; MIC/IC80 ([11]; 24 h): >1000 µM; MIC/IC80 ([11]; 48 h): >1000 µM; MIC/IC80 ([12]; 24 h): >1000 µM; MIC/IC80 ([12]; 48 h): >1000 µM; MIC/IC80 (Absidia corymbifera 272; 24 h): >1000 µM; MIC/IC80 (Absidia corymbifera 272; 48 h): >1000 µM; MIC/IC80 ([13]; 72 h): >1000 µM; MIC/IC80 ([13]; 120 h): >1000 µM
